# Columns and labels:
# human PC7 = experiment: Western blot of overexpressed PC7 protein in Huh7 cells co-transfected with miRNA vectors; assay type: cell-based
# Experimental: In the next step, the effect of miR-125a-5p on PC7 function was determined. First, the miR-125a-5p-overexpressing vector and its related mock plasmids were co-transfected with the pIRES vector (Invitrogen, USA), containing the full length of cDNA encoding the PCSK7 mRNA with the complete 3′-UTR in Huh7 cells. The western blot analysis was performed 48 hours after transfection. Thereafter, the impact of miR-125a-5p on the enzymatic function of PC7 was assessed by co-transfecting Huh7 cells with the miR-125a-5p-overexpressing vector, with that coding for the full length of PCSK7, and a plasmid encoding hTfR1 (Guillemot et al., 2013; Durand et al., 2020). […]
# Subsequently, proteins were isolated with an ice-cold RIPA buffer (1×), comprising 50 mM of Tris hydrochloride (pH 8), 150 mM of sodium chloride, 0.1% sodium dodecyl sulfate, 1% Nonidet P40, 0.25% sodium deoxycholate, and a cocktail of protease inhibitors (Roche, Oakville, ON, Canada). […] Both PC7 and TfR1 were C-terminally tagged with V5 and detected with a V5-monoclonal antibody (Invitrogen) and membranes were incubated with appropriate primary and secondary antibodies, as reported (Guillemot et al., 2013). Subsequently, immunoreactive bands (the signal) were visualized with an enhanced chemiluminescent reaction kit (Bio-Rad, USA) and recorded via chemiluminescence. […]
# [1] = test system: mutated form of PCSK7 3′-UTR; experiment: Luciferase reporter assay, miRNA target site-deleted PCSK7 3′-UTR, HEK293T cells; assay type: cell-based, human
# Text: The interactions between the miRNAs and their probable targets on PCSK7 were explored by cloning the potential target regions in psiCHECK-2™ (Promega, USA), a luciferase reporter vector. In psiCHECK-2™, hRluc, the Renilla luciferase gene, is located upstream of the target regions of interest cloned into the psiCHECK-2™ vector downstream of the Renilla gene. The region corresponding to the 3′-UTR of PCSK7 (926-nt sequences in length) that constituted the predicted miRNA response elements was PCR-amplified and cloned downstream of the Renilla luciferase gene in the psiCHECK-2™ vector (Promega, USA). For the confirmation of whether miRNA response elements (miRNA target sites) on the 3′-UTR of PCSK7 were active and had direct interactions with the miRNAs, different mutants (plasmids) were constructed via splicing by over-hang-extension (SOEing) PCR. For miR-125a-5p and miR-143-3p, each of which has two miRNA response elements on PCSK7 3′-UTR, three different mutant constructs were built. Two constructs were made by deleting a putative miRNA target site, and the third one was made by omitting both putative miRNA target sites in the 3′-UTR sequence of PCSK7. In the miR-409-3p mutant construct, a putative miRNA target site was deleted from the 3′-UTR sequence.
# The HEK293T cells were co-transfected through the application of the wild-type psiCHECK-2, the wild-type PCSK7 3′-UTR, the mutant PCSK7 3′-UTR, and the miR-overexpressing vectors so that the direct interactions of the nominated miRNAs with PCSK7 3′-UTR could be investigated. In brief, 150 ng of the wild-type or mutated 3′-UTR constructs and 300 ng of the miRNA-expressing vectors were co-transfected in HEK293T-cultured 48-well plates using FuGENE™ (Invitrogen, USA). Additionally, the psiCHECK-2 and pEGFP-C1 mock vectors were transfected and utilized as controls for luciferase assay and transfection, respectively. Transfection efficiency was monitored by fluorescent microscopy (Nikon TE2000S, Japan) 36 hours following the procedure.
# The PsiCHECK-2 reporter construct plasmid contained the Renilla luciferase gene upstream of PCSK7 3′-UTR and an independent firefly luciferase gene as an internal control for normalization. Forty-eight hours after HEK293T co-transfection, the luciferase reporter assay was carried out employing the Dual-Luciferase Reporter Assay System (Promega, USA) with a luminometer (Titertek-Berthold, Germany) in accordance with the manufacturer's protocol. Each sample was performed in triplicate, and the experiment was repeated at least three biological times. In short, a lysis buffer was added to each well after the removal of the media of the cell. Then, LARII Reagent was added, and after 20 minutes, the firefly luciferase activity was measured as a control. Afterward, Renilla activity was determined using Stop & Glo Reagent. The relative luciferase activity was calculated using the following formula: ΔFold Activity of Luciferase (Renilla/Firefly)=Average Renilla/Firefly from Samples A/B.
# A luciferase reporter assay further confirmed that miR-125a-5p, miR-143-3p, and miR-409-3p directly targeted the 3′-UTR of the PCSK7 transcript since the negative regulatory effect was lost upon the deletion of the miRNA target sites (miR-125a-5p, miR-143-3p, and miR-409-3p) on the 3′-UTR of the PCSK7 reporter plasmid (FIGS. 28A-B). In this regard, three different mutated miR plasmids were constructed for both miR-125a-5p and miR-143-3p. Single-target sites of each miRNA were omitted individually in two separate plasmids, and the two putative binding sites of the miRNAs were deleted in the other plasmid.
substance,measurement,setting,value
"miR-125a-5p: miRNA targeting PCSK7 3′-UTR and exons 14 and 15, overexpressed from pEGFP-C1 precursor vector (UCCCUGAGACCCUUUAACCUGUGA; miRNA expressed from a pEGFP-C1 precursor vector, further chemistry not given here)",fall of overexpressed PC7 protein levels,"human PC7; Huh7, 48 hours post-transfection, vs mock (pEGFP-C1) and miR-224-5p controls",~80%
same,decrease of PC7 protein levels,"human PC7; Huh7, PC7:miR-125a-5p DNA ratios 1:2, 1:3 and 1:5, all three ratios",> 80%
same,relative luciferase activity,"[1]; Mut-a, deletion of the first target site",still decreased
same,relative luciferase activity,"[1]; Mut-a,b, deletion of both miRNA target sites",failed to significantly decrease
same,relative luciferase activity,"[1]; Mut-b, deletion of the second target site",still decreased
